In patent US11608320B2, “Oxazolidinone hydroxamic acid derivatives” (KUWAIT UNIVERSITY, priority 2020, dated 2023):

Columns and labels:
[1] = system: LTC4 release from IgE/antigen-activated mouse mast cells (BMMC); assay: Inhibition of LTC4 release in allergen/IgE-activated bone marrow-derived mouse mast cells; format: cell-based; conditions: BMMC, anti-DNP IgE sensitized, DNP-BSA 30 ng/ml, 30 min
Description: (§1) Inhibition of LTC4 release and degranulation in allergen/IgE-activated bone marrow-derived mouse mast cells (BMMC): Bone marrow-derived mast cells (BMMC) were generated from pathogen-free 5-7 week old male Balb/c mice according to the method of Davis et al., [2004] (Davis, B. J., et al., (2004), Journal of Immunology, 173: 6914-6920). Essentially, bone marrow cells were obtained by flushing of the femoral bone marrow and cultured in RPMI 1640 medium supplemented with 10% FBS, 100 U/ml penicillin, and 100 μg/ml streptomycin, 25 mM HEPES, 1.0 mM sodium pyruvate, 0.1 mM nonessential amino acids, 0.0035% 2-mercaptoethanol, and 30 ng/ml mouse recombinant IL-3, with culture medium replaced every two days. Cells were used after 4-8 weeks of culture, by which time at least 97% of the cells would have differentiated into mast cells.
(§2) The generated BMMCs were seeded at 5×10^4 cells/well in a 96-well flat-bottom culture plate and passively sensitized overnight with 0.5 μg/ml anti-DNP monoclonal IgE antibody (clone SPE-7, Sigma-Aldrich, St. Louis, Mo., USA). The cells were then washed twice to remove any unbound antibody and subsequently re-suspended in reaction buffer (135 mM NaCl, 5 mM KCl, 1.8 mM CaCl2), 1 mM MgCl2, 5.6 mM glucose, 0.05% BSA and 20 mM HEPES, pH 7.4). They were then pre-incubated with the test compounds (0.01-30 μM) or the solvent (0.05% DMSO) for 15 min before being stimulated with the specific antigen, DNP-BSA (30 ng/ml). After 30 min incubation at 37° C., the amount of LTC4 released into the supernatant (as index of 5-LO activity) was determined by ELISA as described below.
Assay of released leukotrienes/β-hexoseaminidase enzyme: Appropriately diluted supernatants were assayed for the released LTs (LTB4 and LTC4), by the enzyme immunoassay (EIA) method using assay kits supplied by R&D Systems (Minneapolis, Minn., USA) and following the manufacturer's instructions.

[2] = system: degranulation of bone marrow-derived mouse mast cells; assay: Inhibition of degranulation (β-hexoseaminidase release) in allergen/IgE-activated BMMC; format: cell-based; conditions: anti-DNP IgE sensitized, DNP-BSA 30 ng/ml, 30 min
Description: as §1
as §2, with “They were then pre-incubated with the test compounds (0.01-30 μM) or the solvent (0.05% DMSO) for 15 min before being stimulated with the specific antigen, DNP-BSA (30 ng/ml).” left out
The concurrently-released granular enzyme, β-hexoseaminidase (as index of degranulation) was determined as described below.
The beta-hexoseaminidase released into the supernatant by the degranulating BMMCs was determined colorimetrically using p-nitrophenyl-N-acetyl-β-D-glucosaminide as substrate. […] The absorbance of the colored product (p-nitrophenol) was then read at 405 nm in a microplate reader. Results were expressed as percentage of the total cell content (determined in cells lysed with 0.1% triton-x-100).

[3] = system: antigen-induced airway hyperresponsiveness to methacholine; assay: Allergen-induced airway hyperresponsiveness (AHR) in mouse model of asthma; format: in vivo; conditions: 15 or 30 mg/kg s.c., 1 h before and 1 h after each ovalbumin challenge
Procedure: Inhibition of allergen-induced Airway hyperresponsiveness (AHR) and inflammation in mouse model of asthma; Immunization, challenge and drug treatment: Female mice, as specified above, were immunized intraperitoneally (i.p.) with 10 μg ovalbumin mixed with 0.2 ml of aluminum hydroxide gel (Alu-Gel-S; SERVA Electrophoresis GmbH, Heidelberg, Germany), on day 0 and repeated on day 7. On day 14, after the start of immunization, the animals were challenged intra-nasally, once a day for 4 consecutive days, with 50 μl of 0.06% ovalbumin solution in PBS. Control animals were similarly immunized with PBS and challenged intra-nasally with 50 μl PBS. All intra-nasal administrations were done following light anesthesia with halothane.
The animals were divided into 5 groups A-E (10-14 animals per group). […]
Different treatment groups were used for the AHR and cytology/histology studies. Twenty four hours after the last intra-nasal challenge/drug treatment, lung function was measured in some animals while in others bronchoalveolar lavage (BAL), cytology and histology were performed after they were sacrificed with overdose of halothane.
Measurement of AHR: AHR was measured in individual mice using a Finepoint Series RC site (Buxco Research Systems, Wilmington, N.C., USA), according to the manufacturer's guidelines. […]

CCCCCCCC(=O)N(O)C[C@H]1CN(c2ccc(N3CCOCC3)c(F)c2)C(=O)O1 [PH-251, (R)—N-((3-(3-fluoro-4-morpholinophenyl)-2-oxooxazolidin-5-yl)methyl)-N-hydroxyoctanamide]
Inhibition of generation of LTC4 from IgE/allergen-activated mast cells (FIG. 2A) [1]: equally effective in inhibiting the generation of LTC4
Inhibition of degranulation (release of granular β-hexoseaminidase) (FIG. 2B) [2]: able to inhibit degranulation
Development of antigen-induced AHR to inhaled methacholine (FIGS. 4A-4B) [3]: almost completely abolished the development of AHR
